Test results published in PubChem BioAssay (NCI).
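96-well plates; 48 h exposure; 5 concentrations. Endpoints by linear interpolation between flanking doses. Not reached: highest tested concentration assigned. GI50 marks 50% less growth. TGI: concentration producing complete growth inhibition.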

Key:
Test in all cases: DTP human tumour cell line panel, 48 h
[1] = test system: OVCAR-3 ovarian
[2] = test system: IGROV1 ovarian
[3] = test system: RPMI-8226 leukemia
[4] = test system: UACC-62 melanoma
[5] = test system: TK-10 renal
[6] = test system: U251 CNS
[7] = test system: MCF7 breast
[8] = test system: SNB-19 CNS
[9] = test system: HOP-62 NSCLC
[10] = test system: UACC-257 melanoma
[11] = test system: PC-3 prostate
[12] = test system: KM12 colon
[13] = test system: NCI/ADR-RES ovarian
[14] = test system: HCT-15 colon
[15] = test system: 786-0 renal
[16] = test system: HT29 colon
[17] = test system: SK-MEL-28 melanoma
[18] = test system: HCC-2998 colon
[19] = test system: A498 renal
[20] = test system: BT-549 breast
[21] = test system: NCI-H460 lung
[22] = test system: OVCAR-8 ovarian
[23] = test system: CCRF-CEM leukemia
[24] = test system: SK-OV-3 ovarian
[25] = test system: OVCAR-5 ovarian
[26] = test system: HCT-116 colon
[27] = test system: MOLT-4 leukemia
[28] = test system: SK-MEL-5 melanoma
[29] = test system: MDA-MB-231 breast
[30] = test system: DU-145 prostate
[31] = test system: NCI-H23 lung
[32] = test system: SN12C renal
[33] = test system: SW-620 colon
[34] = test system: M14 melanoma
[35] = test system: K-562 leukemia
[36] = test system: SF-268 CNS
[37] = test system: MDA-MB-435
[38] = test system: HL-60(TB) leukemia
[39] = test system: NCI-H226 lung
[40] = test system: SNB-75 CNS
[41] = test system: HS 578T breast
[42] = test system: UO-31 renal
[43] = test system: SK-MEL-2 melanoma
[44] = test system: EKVX NSCLC
[45] = test system: CAKI-1 renal
[46] = test system: A549 NSCLC
[47] = test system: LOX IMVI melanoma
[48] = test system: ACHN renal
[49] = test system: MALME-3M melanoma
[50] = test system: RXF 393 renal
[51] = test system: SF-539 CNS
[52] = test system: OVCAR-4 ovarian
[53] = test system: NCI-H522 lung
[54] = test system: HOP-92 NSCLC
[55] = test system: SF-295 CNS
[56] = test system: COLO 205 colon

## N#C/C(=C\c1ccc2c(c1)OCO2)n1nnc2ccccc21
[1]
  GI50: 357 nM
  TGI: 14300 nM
[2]
  GI50: 716 nM
  TGI: 11800 nM
[3]
  GI50: 2190 nM
  TGI: > 100000 nM
[4]
  GI50: 450 nM
  TGI: 18500 nM
[5]
  GI50: 2200 nM
  TGI: 8550 nM
[6]
  GI50: 1540 nM
  TGI: 21100 nM
[7]
  GI50: 417 nM
  TGI: 14100 nM
[8]
  GI50: 1420 nM
  TGI: 13300 nM
[9]
  GI50: 2410 nM
  TGI: 14900 nM
[10]
  GI50: 6680 nM
  TGI: 62400 nM
[11]
  GI50: 1350 nM
  TGI: 24300 nM
[12]
  GI50: 797 nM
  TGI: > 100000 nM
[13]
  GI50: 405 nM
  TGI: 17200 nM
[14]
  GI50: 395 nM
  TGI: 13800 nM
[15]
  GI50: 2010 nM
  TGI: 12900 nM
[16]
  GI50: 383 nM
  TGI: > 100000 nM
[17]
  GI50: 1240 nM
  TGI: 17600 nM
[18]
  GI50: 1860 nM
  TGI: 7230 nM
[19]
  GI50: 1760 nM
  TGI: 5280 nM
[20]
  GI50: 938 nM
  TGI: 15000 nM
[21]
  GI50: 2860 nM
  TGI: > 100000 nM
[22]
  GI50: 1760 nM
  TGI: > 100000 nM
[23]
  GI50: 491 nM
  TGI: > 100000 nM
[24]
  GI50: 2610 nM
  TGI: 17000 nM
[25]
  GI50: 2220 nM
  TGI: 7130 nM
[26]
  GI50: 439 nM
  TGI: 17400 nM
[27]
  GI50: 2420 nM
  TGI: > 100000 nM
[28]
  GI50: 1620 nM
  TGI: 12600 nM
[29]
  GI50: 1700 nM
  TGI: 7730 nM
[30]
  GI50: 1900 nM
  TGI: 13100 nM
[31]
  GI50: 3600 nM
  TGI: 22600 nM
[32]
  GI50: 1320 nM
  TGI: 14800 nM
[33]
  GI50: 489 nM
  TGI: > 100000 nM
[34]
  GI50: 424 nM
  TGI: 23500 nM
[35]
  GI50: 361 nM
  TGI: > 100000 nM
[36]
  GI50: 3220 nM
  TGI: 20500 nM
[37]
  GI50: 200 nM
  TGI: 501 nM
[38]
  GI50: 330 nM
  TGI: > 100000 nM
[39]
  GI50: 2210 nM
  TGI: 16000 nM
[40]
  GI50: 179 nM
  TGI: 1510 nM
[41]
  GI50: 2530 nM
  TGI: 9360 nM
[42]
  GI50: 1760 nM
  TGI: 12700 nM
[43]
  GI50: 1230 nM
  TGI: 26900 nM
[44]
  GI50: 1540 nM
  TGI: 16300 nM
[45]
  GI50: 518 nM
  TGI: 13100 nM
[46]
  GI50: 991 nM
  TGI: 48100 nM
[47]
  GI50: 990 nM
  TGI: 25000 nM
[48]
  GI50: 784 nM
  TGI: 8530 nM
[49]
  GI50: 1400 nM
  TGI: 23400 nM
[50]
  GI50: 986 nM
  TGI: 5310 nM
[51]
  GI50: 1480 nM
  TGI: 6270 nM
[52]
  GI50: 1660 nM
  TGI: 20300 nM
[53]
  GI50: 270 nM
  TGI: 15200 nM
[54]
  GI50: 810 nM
  TGI: 3310 nM

## CC[C@H](C)[C@H](NC(=O)C12CC(NC)(C1)C2)C(=O)N(C)[C@H](C[C@@H](OC(C)=O)c1nc(C(=O)N[C@@H](Cc2ccccc2)C[C@H](C)C(=O)OC)cs1)C(C)C
[55]
  GI50: 401 nM
  TGI: 2170 nM
[1]
  GI50: 55 nM
  TGI: 511 nM
[2]
  GI50: 181 nM
  TGI: > 25000 nM
[3]
  GI50: 80.6 nM
  TGI: 5830 nM
[4]
  GI50: 84.2 nM
  TGI: > 25000 nM
[5]
  GI50: 3700 nM
  TGI: > 25000 nM
[6]
  GI50: 434 nM
  TGI: > 25000 nM
[7]
  GI50: 43.9 nM
  TGI: > 25000 nM
[8]
  GI50: 615 nM
  TGI: > 25000 nM
[9]
  GI50: 542 nM
  TGI: > 25000 nM
[10]
  GI50: 19800 nM
  TGI: > 25000 nM
[11]
  GI50: 208 nM
  TGI: > 25000 nM
[12]
  GI50: 179 nM
  TGI: > 17600 nM
[13]
  GI50: > 25000 nM
  TGI: > 25000 nM
[14]
  GI50: 1110 nM
  TGI: > 17100 nM
[15]
  GI50: 237 nM
  TGI: > 11700 nM
[16]
  GI50: 138 nM
  TGI: 1330 nM
[17]
  GI50: 2130 nM
  TGI: > 25000 nM
[18]
  GI50: 349 nM
  TGI: > 25000 nM
[19]
  GI50: 525 nM
  TGI: > 8000 nM
[20]
  GI50: 97.2 nM
  TGI: 1020 nM
[21]
  GI50: 282 nM
  TGI: > 25000 nM
[22]
  GI50: 633 nM
  TGI: > 25000 nM
[23]
  GI50: 221 nM
  TGI: 2410 nM
[24]
  GI50: 786 nM
  TGI: > 25000 nM
[25]
  GI50: 1520 nM
  TGI: > 25000 nM
[26]
  GI50: 96.9 nM
[27]
  GI50: 649 nM
  TGI: > 25000 nM
[28]
  GI50: 103 nM
  TGI: 999 nM
[29]
  GI50: 576 nM
  TGI: > 25000 nM
[30]
  GI50: 199 nM
  TGI: 3020 nM
[31]
  GI50: 790 nM
  TGI: > 25000 nM
[32]
  GI50: 585 nM
  TGI: > 25000 nM
[33]
  GI50: 159 nM
  TGI: > 25000 nM
[34]
  GI50: 237 nM
[56]
  GI50: 189 nM
  TGI: 1560 nM
[35]
  GI50: 53.4 nM
  TGI: > 25000 nM
[36]
  GI50: 355 nM
  TGI: > 25000 nM
[37]
  GI50: 29.7 nM
  TGI: 250 nM
[38]
  GI50: 55.7 nM
  TGI: 163 nM
[39]
  GI50: 1710 nM
  TGI: > 25000 nM
[40]
  GI50: 92.8 nM
  TGI: > 25000 nM
[41]
  GI50: 234 nM
  TGI: 15100 nM
[42]
  GI50: 1940 nM
  TGI: > 25000 nM
[43]
  GI50: 171 nM
[44]
  GI50: 2130 nM
  TGI: > 25000 nM
[45]
  GI50: 6420 nM
  TGI: > 25000 nM
[46]
  GI50: 1110 nM
  TGI: > 25000 nM
[47]
  GI50: 209 nM
  TGI: > 25000 nM
[48]
  GI50: 1390 nM
  TGI: > 25000 nM
[49]
  GI50: 329 nM
  TGI: > 25000 nM
[50]
  GI50: 160 nM
  TGI: 1220 nM
[51]
  GI50: 421 nM
  TGI: 1500 nM
[52]
  GI50: 3830 nM
  TGI: > 25000 nM
[53]
  GI50: 34.6 nM
  TGI: 368 nM
[54]
  GI50: 7170 nM
  TGI: > 25000 nM
